How the values were obtained:
[1] = target: Voltage-gated inwardly rectifying potassium channel KCNH2 (Homo sapiens, UniProt Q12809); experiment: Displacement of [3H]dofetilide from human ERG
[2] = Half life in Beagle dog at 0.25 mg/kg, iv; assay type: ADME, organism-based, Canis lupus familiaris; set-up: dose 0.25 mg/kg, route intravenous; settings: in vivo
Canis familiaris = experiment: AUC in Beagle dog at 0.25 mg/kg, iv; assay type: ADME, organism-based, Canis lupus familiaris, Plasma; set-up: dose 0.25 mg/kg, route intravenous; settings: in vivo
[3] = Volume of distribution in Beagle dog at 0.25 mg/kg, iv; assay type: ADME, organism-based, Canis lupus familiaris; set-up: dose 0.25 mg/kg, route intravenous; settings: in vivo, read-out: Vdss
[4] = Oral bioavailability in rhesus monkey at 1 mg/kg, po; assay type: ADME, organism-based, Macaca mulatta; settings: in vivo
[5] = Volume of distribution in rhesus monkey at 1 mg/kg, iv and 1 mg/kg, po; assay type: ADME, organism-based, Macaca mulatta; settings: in vivo, read-out: Vdss
[6] = Volume of distribution in rat at 2 mg/kg, iv and 10 mg/kg, po; assay type: ADME, organism-based; settings: in vivo, read-out: Vdss
[7] = Volume of distribution in dog at 1 mg/kg, iv and 1 mg/kg, po; assay type: ADME, organism-based, Canis lupus familiaris; settings: in vivo, read-out: Vdss
[8] = Clearance in dog at 1 mg/kg, iv and 1 mg/kg, po; assay type: ADME, organism-based, Canis lupus familiaris; settings: in vivo
[9] = Oral bioavailability in rat at 10 mg/kg, po; assay type: ADME, organism-based; settings: in vivo
[10] = Oral bioavailability in dog at 1 mg/kg, po; assay type: ADME, organism-based, Canis lupus familiaris; settings: in vivo
[11] = Clearance in rat at 2 mg/kg, iv and 10 mg/kg, po; assay type: ADME, organism-based; settings: in vivo
[12] = Clearance in rhesus monkey at 1 mg/kg, iv and 1 mg/kg, po; assay type: ADME, organism-based, Macaca mulatta; settings: in vivo

Voltage-gated inwardly rectifying potassium channel KCNH2, sequence (Q12809 whole entry): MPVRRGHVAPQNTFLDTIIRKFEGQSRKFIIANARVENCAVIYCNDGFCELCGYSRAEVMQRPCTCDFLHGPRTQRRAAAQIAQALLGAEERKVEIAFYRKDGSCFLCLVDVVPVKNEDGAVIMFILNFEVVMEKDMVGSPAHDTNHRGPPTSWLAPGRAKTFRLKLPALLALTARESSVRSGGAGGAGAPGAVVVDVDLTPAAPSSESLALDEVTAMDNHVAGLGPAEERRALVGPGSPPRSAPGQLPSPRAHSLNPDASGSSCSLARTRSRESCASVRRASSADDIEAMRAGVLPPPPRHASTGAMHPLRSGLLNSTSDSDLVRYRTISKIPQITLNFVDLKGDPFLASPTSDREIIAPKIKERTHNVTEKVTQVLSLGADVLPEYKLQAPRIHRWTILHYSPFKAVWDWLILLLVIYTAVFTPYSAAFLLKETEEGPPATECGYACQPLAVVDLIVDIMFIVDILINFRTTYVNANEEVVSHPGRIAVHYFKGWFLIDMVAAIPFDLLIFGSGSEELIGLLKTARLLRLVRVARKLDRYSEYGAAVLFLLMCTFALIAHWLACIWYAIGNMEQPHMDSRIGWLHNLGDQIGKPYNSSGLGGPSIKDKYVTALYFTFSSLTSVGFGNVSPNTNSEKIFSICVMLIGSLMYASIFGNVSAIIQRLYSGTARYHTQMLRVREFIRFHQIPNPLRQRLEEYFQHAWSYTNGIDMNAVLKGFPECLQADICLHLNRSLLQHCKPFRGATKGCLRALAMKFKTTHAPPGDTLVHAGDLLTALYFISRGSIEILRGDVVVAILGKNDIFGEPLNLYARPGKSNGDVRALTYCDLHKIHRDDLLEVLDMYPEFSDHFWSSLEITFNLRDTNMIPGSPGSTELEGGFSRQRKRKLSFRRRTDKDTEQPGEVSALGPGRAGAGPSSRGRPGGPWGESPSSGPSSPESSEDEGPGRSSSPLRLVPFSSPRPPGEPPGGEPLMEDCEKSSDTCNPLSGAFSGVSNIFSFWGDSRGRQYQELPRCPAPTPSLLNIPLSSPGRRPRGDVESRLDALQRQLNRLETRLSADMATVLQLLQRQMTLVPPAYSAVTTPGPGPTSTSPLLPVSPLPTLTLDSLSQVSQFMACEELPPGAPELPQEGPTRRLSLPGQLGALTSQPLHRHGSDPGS

half-life [2] [h]	AUC (Canis familiaris) [µM·h]	Vd [3] [L/kg]	Compound	Activity [1] [µM]	also measured
			N#Cc1cnc(Nc2cc(N3CCCC(N)CC3)ncn2)s1 (stereo not given)	1.012	
			CN1CCN(c2cc(Nc3ncc(C#N)s3)ncn2)CC1	0.923	
1.34	1.91	3.65	N#Cc1cnc(Nc2cc(N3CCC(N)CC3)ncn2)s1	6.643	
2	4.81	1.31	COCCN1CCN(c2cc(Nc3ncc(C#N)s3)ncn2)CC1		
10.5	10.2	2.4	N#Cc1cnc(Nc2cc(N3CCN(CCN4CCOCC4)CC3)ncn2)s1	5	bioavailability [4]: 54%; Vd [5]: 10.1 L/kg; Vd [6]: 3.32 L/kg; Vd [7]: 2.72 L/kg; clearance [8]: 0.247 L/h/kg; bioavailability [9]: > 99%; bioavailability [10]: 51%; clearance [11]: 2.32 L/h/kg; clearance [12]: 1.36 L/h/kg
			N#Cc1cnc(Nc2ccncn2)s1	2.932	
			CC(=O)N1CCN(c2cc(Nc3ncc(C#N)s3)ncn2)CC1	3.291	
			N#Cc1cnc(Nc2cc(N)ncn2)s1	> 10	
			N#Cc1cnc(Nc2cc(N3CCCNCC3)ncn2)s1	2.951	
7.97	3.08	14.8	N#Cc1cnc(Nc2cc(N3CCN(CCCN4CCOCC4)CC3)ncn2)s1	4.003	
			N#Cc1cnc(Nc2ccnc(N)n2)s1	> 10	
23	6.07	14.1	N#Cc1cnc(Nc2cc(N3CCN(CCN4CCCC4)CC3)ncn2)s1	0.383	
